{
  "source": "patent US10729693B2",
  "about": "“Compositions and methods for the treatment of endometriosis” (PONCE MEDICAL SCHOOL FOUNDATION, INC., priority 2018, dated 2020)",
  "format_in_all_cases": "in vivo, rat",
  "key": {"[1]": {"test_system": "CRH, UCN1, CRHR1, CRHR2 and glucocorticoid receptor (GR) mRNA", "assay": "qRT-PCR of mRNA levels in uterus and endometriosis vesicles", "settings": "normalized to sham uterus, day 60", "description": "Endometriosis vesicles and normal uterine tissue from endometriosis or sham rats, were lysed in an RLT buffer (QIAGEN, Germantown, Md.) using the BULLET BLENDER Tissue Homogenizer (NEXT ADVANCE, Averill Park, N.Y.). The total RNA from the lysates were extracted according to RNEASY Mini Kit manufacturer's protocol (QIAGEN, Germantown, Md.). RNA concentration and purity were measured on a NanoDrop™ 2000 UV spectrophotometer (Thermo Scientific™, Wilmington, USA). Concentration and quality of RNA samples were acquired based on the ratio of absorbance at 260/280 nm in the spectrophotometer. To carry out the synthesis of cDNA from RNA samples a total reaction volume of 20 μl including 0.1 μg of total RNA concentration and synthesis reagents was used. A iScript™ cDNA Synthesis Kit was used according to manufacturer's protocol (BIO-RAD, Hercules, Calif.). Reactions were carried out in T-100™ thermal cycler (BIO-RAD, Hercules, Calif.). RT-PCR running method was as follows: 25° C. for 5 min, 42° C. for 30 min, 85° C. for 5 min. Samples were stored at −80° C. for later experimentation or qRT-PCR.\nReal time quantitative PCR (qPCR) was used to evaluate changes in mRNA expression. For this, 25 μl of a total volume of reaction assay was used with 1:10 dilution of cDNA with iQ™ SYBR Green Supermix (BIO-RAD Hercules, Calif.) in a 96 well plate according to the manufacturer protocol and amplified in a Quant Studio™ 12 K Flex Real time PCR System (Applied Biosystems™, Carlsbad, Calif.). Commercial primers for CRH, UCN1 CRHR1, CRHR2 and glucocorticoid receptor (GR) were purchased from QIAGEN (Germantown, Md.). Real time PCR cycles protocol was as follows: 95° C. for 10 min. for enzyme activation followed by 40 cycles of denaturing at 95° C. for 15 sec. and annealing at 60° C. for 1 min. All changes in gene expression were normalized against GAPDH of each sample. CT values and changes per gene expression level were automatically analyzed by the Quantstudio™ 12 K Flex Software (Applied Biosystems™, Carlsbad, Calif.). All samples were run in duplicate. For comparison purposes, mRNA from sham rats were always run within the same plate as experimental samples from vehicle treated and antalarmin treated groups.\nGraphPad Prism 6.0 (GraphPad Software, San Diego, Calif.) was used to prepare graphs and run statistical analyses. Data is presented as mean difference+SEM and a p value <0.05 was considered statistically significant. The variability between groups was first assessed followed by a test for outlier values. […] A One-way analysis of variance (ANOVA) was used to compare behaviors. A one-sample t-test against the sham rats value normalized to 1.0. was used to assess RT-PCR results. A repeated measures One-way ANOVA was used to compare changes in weight gain between treatment groups."}, "[2]": {"test_system": "CRH peptide, CRHR1 and glucocorticoid receptor (GR) in hypothalamus and hippocampus", "assay": "Brain immunohistochemistry (percent of area immunolabeled)", "description": "Protocols previously published (Torres-Reveron et al., 2016, 2009, 2008) were followed. Rats were perfused with 4% paraformaldehyde by aortic arch perfusion and brains were removed and stored in cryoprotectant solution (30% sucrose, 30% ethylene glycol) until further processing. Coronal tissue sections (40 μm thick) through the hypothalamus (sections 0.92 to 1.88 caudal to Bregma) and dorsal hippocampus (sections 3.8 to 4.3 caudal to Bregma), which include the amygdala were selected and incubated in antiserum raised against CRHR1 (goat polyclonal, Abcam, cat. ab59023), CRH peptide antibody (guinea pig polyclonal, Peninsula labs., cat. T-5007) or glucocorticoid receptor antibody (GR, rabbit monoclonal, Cell Signaling cat. #3660) for 48 hrs. at 4° C. Optimal working concentrations were determined for each antibody. The primary antibody was labeled with CY3 secondary antibody (1:400 Jackson ImmunoResearch, West Grove, Pa.). Images were taken at the same time and illumination (excitation) and background corrected to control for batch effects. All regions of interest were analyzed using Image J software (open access from NIH) to calculate the percent of positive immunolabeling within the region of interest. Tissue from control and experimental animals was processed together. For each animal, the two best morphologically preserved sections of each region of interest were included in the analysis."}, "stress reactivity": {"test_system": "stress reactivity", "assay": "Swim stress challenge", "settings": "day 59; vs vehicle control group"}, "[3]": {"settings": "compared to sham, both endometriosis groups regardless of treatment"}},
  "data": [
    {"smiles": "CCCCN(CC)c1nc(C)nc2c1c(C)c(C)n2-c1c(C)cc(C)cc1C", "note": "[antalarmin]", "values": [
      {"measurement": "UCN1 mRNA in uterus and vesicles", "setting": "[1]", "result": "not altered"},
      {"measurement": "glucocorticoid receptor (GR) mRNA in uterus", "setting": "[1]", "result": "no changes in uterus"},
      {"measurement": "glucocorticoid receptor (GR) mRNA in vesicles", "setting": "[1]", "result": "significant mRNA fold increase"},
      {"measurement": "CRHR2 mRNA in uterus and vesicles", "setting": "[1]; increase only in vesicles of vehicle animals", "result": "No other changes were observed"},
      {"measurement": "CRHR1 mRNA in endometriosis vesicles", "setting": "[1]; increased in vehicle group", "result": "this increase was not observed"},
      {"measurement": "CRH mRNA in uterus and vesicles", "setting": "[1]; two-fold increase in vehicle rats", "result": "this increase was not observed"},
      {"measurement": "CRHR1 immunolabeling in dentate gyrus (DG)", "setting": "[2]; [3]", "result": "Large increases in CRHR1 labeling"},
      {"measurement": "GR immunolabeling in dentate gyrus (DG)", "setting": "[2]; [3]", "result": "Large increases in GR labeling"},
      {"measurement": "CRH peptide immunolabeling in PVN and hippocampus", "setting": "[2]; day 60", "result": "No changes in CRH peptide"},
      {"measurement": "CRHR1 immunolabeling in CA3", "setting": "[2]; day 60", "result": "No changes in CRHR1"},
      {"measurement": "GR immunolabeling in CA3", "setting": "[2]; day 60", "result": "no changes in GR"},
      {"measurement": "swim stress behavioral parameters (immobility, swimming, struggling, diving)", "setting": "stress reactivity", "result": "not different from the control group"}
    ]}
  ]
}
